The record followed here is US20230227427A1, “IL-17A MODULATORS” (SANOFI, priority 2010, published 2023).

The first experiment addresses T1, human recombinant IL-17A (Homo sapiens, UniProt Q16552).
T1 construct: purchased R&D Systems 7955-IL/CF
T1 sequence (Q16552 24-155): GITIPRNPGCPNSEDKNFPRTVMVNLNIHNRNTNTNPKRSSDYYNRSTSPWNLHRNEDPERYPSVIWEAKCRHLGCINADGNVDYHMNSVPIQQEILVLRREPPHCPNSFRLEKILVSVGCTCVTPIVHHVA
As to the kind of experiment: IL-17A AlphaLISA assay (block binding of IL-17A to its receptor IL-17RA). The note with it: compounds pre-incubated with the IL-17A for 30 min (indicated by * in Table A). The gist of the method: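 Compounds pre-incubated 24 h at RT (30 min where flagged) with human IL-17A (7.5 nM stock) before IL-17RA/Fc (5 nM stock), 90 min. Read by AlphaLISA via anti-Fc acceptor and biotin anti-IL-17A/streptavidin donor beads, 680/615 nm. 4-parameter fit; DMSO and 6 μM reference inhibitor as controls; pIC50.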
In general terms: In Alpha technology, singlet oxygen from a donor bead excites a nearby acceptor bead.
Consider `CCn1nccc1C(=O)N[C@H](C(=O)Nc1cnc(-c2c(C)cnn2C)c(F)c1)[C@H]1CC[C@H](C)CC1` [Example 189, N—((S)-2-((6-(1,4-dimethyl-1H-pyrazol-5-yl)-5-fluoropyridin-3-yl)amino)-1-((1r,4S)-4-methylcyclohexyl)-2-oxoethyl)-1-ethyl-1H-pyrazole-5-carboxamide], for which the “AlphaLISA pIC50” value is 6.8*.

The experiment is the same for the next values; noted with them: compounds pre-incubated with the IL-17A for 30 min (indicated by * in Table A); read-out: AlphaLISA pIC50 (converted).
As to `Cn1nccc1C(=O)N[C@H](C(=O)Nc1ccc(-c2c(CO)cnn2C)cn1)C1CCCCCC1` [Example 182, (S)—N-(1-cycloheptyl-2-((5-(4-(hydroxymethyl)-1-methyl-1H-pyrazol-5-yl)pyridin-2-yl)amino)-2-oxoethyl)-1-methyl-1H-pyrazole-5-carboxamide], the IC50 was 0.0316 µM.
Same read-out and setting: the result for `COCc1noc(C)c1-c1ccc(NC(=O)[C@@H](NC(=O)c2ccnn2C)[C@H]2CC[C@H](C)CC2)nc1` [Example 142, N—((S)-2-((5-(3-(methoxymethyl)-5-methylisoxazol-4-yl)pyridin-2-yl)amino)-1-((1r,4S)-4-methylcyclohexyl)-2-oxoethyl)-1-methyl-1H-pyrazole-5-carboxamide] reads 0.398 µM; that for `COCc1nocc1C(=O)N[C@H](C(=O)Nc1ccc(-c2c(C)cnn2C)cn1)C1CCCCCC1` [Example 137, (S)—N-(1-Cycloheptyl-2-((5-(1,4-dimethyl-1H-pyrazol-5-yl)pyridin-2-yl)amino)-2-oxoethyl)-3-(methoxymethyl)isoxazole-4-carboxamide], 0.2 µM.
In the case of `Cn1nccc1C(=O)N[C@H](C(=O)Nc1ccc(-c2c(O)cnn2C)cn1)C1CCCCCC1` [Example 166, (S)—N-(1-cycloheptyl-2-((5-(4-hydroxy-1-methyl-1H-pyrazol-5-yl)pyridin-2-yl)amino)-2-oxoethyl)-1-methyl-1H-pyrazole-5-carboxamide], the IC50 is 0.631 µM.
As to `Cc1nocc1C(=O)N[C@H](C(=O)Nc1ccc(-c2c(C)noc2C)nc1)C1CCCCCC1` [Example 170, (S)—N-(1-cycloheptyl-2-((6-(3,5-dimethylisoxazol-4-yl)pyridin-3-yl)amino)-2-oxoethyl)-3-methylisoxazole-4-carboxamide], the IC50 was 0.158 µM.
Turning to `CCn1nccc1C(=O)N[C@H](C(=O)Nc1ccc(-c2c(C)n[nH]c2C)nc1)[C@H]1CC[C@H](C)CC1` [Example 212, N—((S)-2-((6-(3,5-dimethyl-1H-pyrazol-4-yl)pyridin-3-yl)amino)-1-((1r,4S)-4-methylcyclohexyl)-2-oxoethyl)-1-ethyl-1H-pyrazole-5-carboxamide], the IC50 was 0.1 µM.
Same read-out and setting: under `CCc1nocc1C(=O)N[C@H](C(=O)Nc1ccc(-c2ncncc2C)cn1)[C@H]1CC[C@H](C)CC1` [Example 140, 3-Ethyl-N—((S)-1-((1r,4S)-4-methylcyclohexyl)-2-((5-(5-methylpyrimidin-4-yl)pyridin-2-yl)amino)-2-oxoethyl)isoxazole-4-carboxamide] stands 0.631 µM; under `Cc1noc(C)c1-c1cnc(NC(=O)[C@@H](NC(=O)c2ccnn2C)C2CCCCCC2)c(F)c1` [Example 162, (S)—N-(1-cycloheptyl-2-((5-(3,5-dimethylisoxazol-4-yl)-3-fluoropyridin-2-yl)amino)-2-oxoethyl)-1-methyl-1H-pyrazole-5-carboxamide], 0.2 µM.
As to `Cn1nccc1C(=O)N[C@H](C(=O)Nc1ccc(-c2c(C(F)(F)F)cnn2C)cn1)[C@H]1CC[C@H](C)CC1` [Example 219, 1-methyl-N—((S)-2-((5-(1-methyl-4-(trifluoromethyl)-1H-pyrazol-5-yl)pyridin-2-yl)amino)-1-((1r,4S)-4-methylcyclohexyl)-2-oxoethyl)-1H-pyrazole-5-carboxamide], the IC50 is 0.126 µM.
As to `Cc1nsc(C)c1-c1ccc(NC(=O)[C@@H](NC(=O)c2ccnn2C)[C@H]2CC[C@H](C)CC2)nc1` [Example 196, N—((S)-2-((5-(3,5-dimethylisothiazol-4-yl)pyridin-2-yl)amino)-1-((1r,4S)-4-methylcyclohexyl)-2-oxoethyl)-1-methyl-1H-pyrazole-5-carboxamide], the IC50 was 0.251 µM.
Still for that read-out and setting: the result for `Cc1noc(C)c1-c1ccc(NC(=O)[C@@H](NC(=O)c2ccnn2C(C)C)[C@H]2CC[C@H](C)CC2)cn1` [Example 206, N—((S)-2-((6-(3,5-dimethylisoxazol-4-yl)pyridin-3-yl)amino)-1-((1r,4S)-4-methylcyclohexyl)-2-oxoethyl)-1-isopropyl-1H-pyrazole-5-carboxamide] reads 0.126 µM; that for `Cc1cnn(C)c1-c1ccc(NC(=O)[C@@H](NC(=O)c2nonc2C)C2CCCCCC2)nc1` [Example 134, (S)—N-(1-Cycloheptyl-2-((5-(1,4-dimethyl-1H-pyrazol-5-yl)pyridin-2-yl)amino)-2-oxoethyl)-4-methyl-1,2,5-oxadiazole-3-carboxamide], 0.2 µM.
On the same count and under the same terms, the result for `Cc1cnn(C)c1-c1cnc(NC(=O)[C@@H](NC(=O)c2ccnn2C)C2CCCCCC2)nc1` [Example 165, (S)—N-(1-cycloheptyl-2-((5-(1,4-dimethyl-1H-pyrazol-5-yl)pyrimidin-2-yl)amino)-2-oxoethyl)-1-methyl-1H-pyrazole-5-carboxamide] reads 0.631 µM.

The experiment is the same for the next values; noted with them: compounds pre-incubated with the IL-17A for 24 h at room temperature; read-out: AlphaLISA pIC50 (converted).
For `COc1c[n+]([O-])cc(F)c1-c1ccc(NC(=O)[C@@H](NC(=O)c2ccnn2C)C(c2ccccc2)c2ccccc2)cc1` [Example 28, (S)-3-fluoro-5-methoxy-4-(4-(2-(1-methyl-1H-pyrazole-5-carboxamido)-3,3-diphenylpropanamido)phenyl)pyridine 1-oxide], the IC50 is 0.00794 µM.
On to `Cc1n[nH]c(C)c1-c1ccc(NC(=O)[C@@H](NC(=O)c2ccnn2C)C(c2ccccc2)c2ccccc2)cc1` [Example 32, (S)—N-(1-((4-(3,5-dimethyl-1H-pyrazol-4-yl)phenyl)amino)-1-oxo-3,3-diphenylpropan-2-yl)-1-methyl-1H-pyrazole-5-carboxamide], for which the IC50 is 0.0126 µM.
Consider `Cn1nccc1C(=O)N[C@H](C(=O)Nc1ccc(-c2cnc3ncccn23)cc1)C(c1ccccc1)c1ccccc1` [Example 41, (S)—N-(1-((4-(imidazo[1,2-a]pyrimidin-3-yl)phenyl)amino)-1-oxo-3,3-diphenylpropan-2-yl)-1-methyl-1H-pyrazole-5-carboxamide], for which the IC50 was 0.2 µM.
`Cn1nccc1C(=O)N[C@H](C(=O)Nc1ccc(-c2cn(C)c(=O)c3[nH]ncc23)c(F)c1)C(c1ccccc1)c1ccccc1` [Example 75, (S)—N-(1-((3-fluoro-4-(6-methyl-7-oxo-6,7-dihydro-1H-pyrazolo[3,4-c]pyridin-4-yl)phenyl)amino)-1-oxo-3,3-diphenylpropan-2-yl)-1-methyl-1H-pyrazole-5-carboxamide]: the IC50 is 0.0316 µM.
Consider `Cc1cc(-c2ccc(NC(=O)[C@@H](NC(=O)c3ccnn3C)C(c3ccccc3)c3ccccc3)cc2F)c(C)cn1` [Example 56, (S)—N-(1-((4-(2,5-dimethylpyridin-4-yl)-3-fluorophenyl)amino)-1-oxo-3,3-diphenylpropan-2-yl)-1-methyl-1H-pyrazole-5-carboxamide], for which the IC50 was 0.1 µM.
Same read-out and setting: under `Cn1nccc1C(=O)N[C@H](C(=O)Nc1ccc(C2=CCOCC2)cc1)C(c1ccccc1)c1ccccc1` [Example 81, (S)—N-(1-((4-(3,6-dihydro-2H-pyran-4-yl)phenyl)amino)-1-oxo-3,3-diphenylpropan-2-yl)-1-methyl-1H-pyrazole-5-carboxamide] stands 0.0126 µM.
Turning to `COc1cnccc1-c1ccc(NC(=O)[C@@H](NC(=O)c2ccnn2C)C(c2ccccc2)c2ccccc2)cc1C` [Example 20, (S)—N-(1-((4-(3-methoxypyridin-4-yl)-3-methylphenyl)amino)-1-oxo-3,3-diphenylpropan-2-yl)-1-methyl-1H-pyrazole-5-carboxamide], the IC50 was 0.0316 µM.
Regarding `Cn1nccc1C(=O)N[C@H](C(=O)Nc1ccc(C2(O)CCOCC2)cc1)[C@H]1CC[C@H](C)CC1` [Example 94, N—((S)-2-((4-(4-Hydroxytetrahydro-2H-pyran-4-yl)phenyl)amino)-1-((1r,4S)-4-methylcyclohexyl)-2-oxoethyl)-1-methyl-1H-pyrazole-5-carboxamide], the IC50 is 0.126 µM.
On the same count and under the same terms, under `Cn1nccc1C(=O)N[C@H](C(=O)Nc1ccc(-c2c[nH]c(=O)c3cccnc23)c(F)c1)C(c1ccccc1)c1ccccc1` [Example 66, (S)—N-(1-((3-fluoro-4-(5-oxo-5,6-dihydro-1,6-naphthyridin-8-yl)phenyl)amino)-1-oxo-3,3-diphenylpropan-2-yl)-1-methyl-1H-pyrazole-5-carboxamide] stands 0.0251 µM; under `COc1cc(NC(=O)[C@@H](NC(=O)c2ccnn2C)C(c2ccccc2)c2ccccc2)ccc1-c1ccncc1CO` [Example 53, (S)—N-(1-((4-(3-(hydroxymethyl)pyridin-4-yl)-3-methoxyphenyl)amino)-1-oxo-3,3-diphenylpropan-2-yl)-1-methyl-1H-pyrazole-5-carboxamide], 0.251 µM; under `COc1cnccc1-c1ccc(NC(=O)[C@@H](NC(=O)c2ccnn2C)C(c2ccccc2)c2ccccc2)cc1` [Example 3, (S)—N-(1-((4-(3-methoxypyridin-4-yl)phenyl)amino)-1-oxo-3,3-diphenylpropan-2-yl)-1-methyl-1H-pyrazole-5-carboxamide], 0.0126 µM.
The same measure, in the same setting: under `CNc1cnccc1-c1ccc(NC(=O)[C@@H](NC(=O)c2ccnn2C)C(c2ccccc2)c2ccccc2)cc1` [Example 7, (S)-1-methyl-N-(1-((4-(3-(methylamino)pyridin-4-yl)phenyl)amino)-1-oxo-3,3-diphenylpropan-2-yl)-1H-pyrazole-5-carboxamide] stands 0.0126 µM.
